This data set concerns AF/AFL patients. Put plainly: EURIDIS and ADONIS post hoc analysis: adverse events and ECG changes by timing of amiodarone stop. In kind it is in vivo, human. The settings on record: for QTc-Fridericia > or = 500 msec: unit assumed. The source says: Methods: In EURIDIS and ADONIS studies mentioned in the article of the New England Journal of Medicine, 357, 10, Sep.
Results: Dronedarone decreased AF/AFL recurrence compared to placebo (HR=0.64 [95% CI 0.44-0.95], P=0.022) in this subgroup. […] All the results are included in the table 1 below.
In the table above, “A” means Amiodarone, “D” means” dronedarone, “PI” means Placebo, “n” is the number of patients tested with “PI” or “D”.

Setting [1] is: A stopped more than 2 days before randomization, n = 35.
[2] abbreviates: A stopped within 2 days before randomization, n = 98.
Where [3] appears, read: No amiodarone treatment before randomization, n = 680.

We go through one compound from patent US20120329867A1 (SANOFI, priority 2010, published 2012).

The structures appear in SMILES notation.

Regarding `CCCCc1oc2ccc(NS(C)(=O)=O)cc2c1C(=O)c1ccc(OCCCN(CCCC)CCCC)cc1` [Dronedarone, 2-n-Butyl-3-[4-(3-di-n-butylaminopropoxy)benzoyl]-5-methylsul phonamidobenzofuran], under setting [1], the “Bradyarrhythmia (%) (under adverse events with drug discontinuation)” value is recorded as 0%; the “Bradyarrhythmia (%) (under serious adverse events)” value stood at 0%; the “PR-interval > or = 200 msec and increase > or = 20 msec versus baseline” value was found to be 22.9; the “Rate of Adverse Events with dronedarone discontinuation (%)” value (“Rate of Adverse Events … (%)” for short) worked out at 20.0%. Moreover, under setting [1], the “Rate of Serious adverse events (%)” value was 17.1% and the QTc-Fridericia > or = 500 msec turned out to be 14.3%. Under setting [2], the “Bradyarrhythmia (%) (under adverse events with drug discontinuation)” value is 3.1%; the “Bradyarrhythmia (%) (under serious adverse events)” value amounted to 1%; the “PR-interval > or = 200 msec and increase > or = 20 msec versus baseline” value was found to be 25.8; the “Rate of Adverse Events … (%)” value stood at 8.2%. Under setting [2], the “Rate of Serious adverse events (%)” value stood at 15.3% and the QTc-Fridericia > or = 500 msec was 7.9%. Also, under setting [3], the “Bradyarrhythmia (%) (under adverse events with drug discontinuation)” value was found to be 0.7%; the “Bradyarrhythmia (%) (under serious adverse events)” value is 1.3%; the “PR-interval > or = 200 msec and increase > or = 20 msec versus baseline” value turned out to be 28.0; the “Rate of Adverse Events … (%)” value worked out at 9.1%. For the same compound, under setting [3], the “Rate of Serious adverse events (%)” value is 13.7% and the QTc-Fridericia > or = 500 msec turned out to be 4.4%. In addition, the Tolerability result (small patient cohort switched rapidly from A to D) is on record as “good tolerability”.
